# Laboratory results from PubChem BioAssay AID1259407 (Chemical Carcinogenesis Research Information System (CCRIS), 2018).
# The source made the active and inactive calls. The rule behind the calls is not given here.
# Test system: CCRIS mutagenicity, Ames/micronucleus/aberration tests
# Assay: CCRIS mutagenicity studies
# Conditions: Test System: AMES SALMONELLA TYPHIMURIUM
# [1] = Strain/Indicator: TA98, Metabolic Activation: NONE, Method: STANDARD PLATE
# [2] = Strain/Indicator: TA98, Metabolic Activation: RAT, LIVER, S-9, AROCLOR 1254, Method: STANDARD PLATE
# [3] = Strain/Indicator: TA100, Metabolic Activation: NONE, Method: STANDARD PLATE
# [4] = Strain/Indicator: TA100, Metabolic Activation: RAT, LIVER, S-9, AROCLOR 1254, Method: STANDARD PLATE
structure (smiles),measurement,setting,value
CC(=O)Nc1ccc(C(=O)[C@H]2O[C@H]2c2ccccc2)cc1,mutagenic call,[1],inactive; negative
same,mutagenic call,[2],inactive; negative
same,mutagenic call,[3],active; positive
same,mutagenic call,[4],active; positive
C=C(C)C(=O)OCC,mutagenic call,"Strain/Indicator: TA98, Metabolic Activation: HAMSTER, LIVER, S-9, AROCLOR 1254 (10%), Method: PREINCUBATION",inactive; negative
same,mutagenic call,"Strain/Indicator: TA98, Metabolic Activation: NONE, Method: PREINCUBATION",inactive; negative
same,mutagenic call,[1],inactive; negative
same,mutagenic call,"Strain/Indicator: TA98, Metabolic Activation: RAT, LIVER, S-9, AROCLOR 1254 (10%), Method: PREINCUBATION",inactive; negative
same,mutagenic call,[2],inactive; negative
same,mutagenic call,"Strain/Indicator: TA98, Metabolic Activation: RAT, LIVER, S-9, SODIUM PHENOBARBITAL, Method: STANDARD PLATE",inactive; negative
same,mutagenic call,"Strain/Indicator: TA100, Metabolic Activation: HAMSTER, LIVER, S-9, AROCLOR 1254 (10%), Method: PREINCUBATION",inactive; negative
same,mutagenic call,"Strain/Indicator: TA100, Metabolic Activation: NONE, Method: PREINCUBATION",inactive; negative
same,mutagenic call,[3],inactive; negative
same,mutagenic call,"Strain/Indicator: TA100, Metabolic Activation: RAT, LIVER, S-9, AROCLOR 1254 (10%), Method: PREINCUBATION",inactive; negative
same,mutagenic call,[4],inactive; negative
same,mutagenic call,"Strain/Indicator: TA100, Metabolic Activation: RAT, LIVER, S-9, SODIUM PHENOBARBITAL, Method: STANDARD PLATE",inactive; negative
same,mutagenic call,"Strain/Indicator: TA1535, Metabolic Activation: HAMSTER, LIVER, S-9, AROCLOR 1254 (10%), Method: PREINCUBATION",inactive; negative
same,mutagenic call,"Strain/Indicator: TA1535, Metabolic Activation: NONE, Method: PREINCUBATION",inactive; negative
same,mutagenic call,"Strain/Indicator: TA1535, Metabolic Activation: NONE, Method: STANDARD PLATE",inactive; negative
same,mutagenic call,"Strain/Indicator: TA1535, Metabolic Activation: RAT, LIVER, S-9, AROCLOR 1254 (10%), Method: PREINCUBATION",inactive; negative
same,mutagenic call,"Strain/Indicator: TA1535, Metabolic Activation: RAT, LIVER, S-9, AROCLOR 1254, Method: STANDARD PLATE",inactive; negative
same,mutagenic call,"Strain/Indicator: TA1535, Metabolic Activation: RAT, LIVER, S-9, SODIUM PHENOBARBITAL, Method: STANDARD PLATE",inactive; negative
same,mutagenic call,"Strain/Indicator: TA1537, Metabolic Activation: HAMSTER, LIVER, S-9, AROCLOR 1254 (10%), Method: PREINCUBATION",inactive; negative
same,mutagenic call,"Strain/Indicator: TA1537, Metabolic Activation: NONE, Method: PREINCUBATION",inactive; negative
same,mutagenic call,"Strain/Indicator: TA1537, Metabolic Activation: NONE, Method: STANDARD PLATE",inactive; negative
same,mutagenic call,"Strain/Indicator: TA1537, Metabolic Activation: RAT, LIVER, S-9, AROCLOR 1254 (10%), Method: PREINCUBATION",inactive; negative
same,mutagenic call,"Strain/Indicator: TA1537, Metabolic Activation: RAT, LIVER, S-9, AROCLOR 1254, Method: STANDARD PLATE",inactive; negative
same,mutagenic call,"Strain/Indicator: TA1537, Metabolic Activation: RAT, LIVER, S-9, SODIUM PHENOBARBITAL, Method: STANDARD PLATE",inactive; negative
same,mutagenic call,"Strain/Indicator: TA1538, Metabolic Activation: NONE, Method: STANDARD PLATE",inactive; negative
same,mutagenic call,"Strain/Indicator: TA1538, Metabolic Activation: RAT, LIVER, S-9, AROCLOR 1254, Method: STANDARD PLATE",inactive; negative
same,mutagenic call,"Strain/Indicator: TA1538, Metabolic Activation: RAT, LIVER, S-9, SODIUM PHENOBARBITAL, Method: STANDARD PLATE",inactive; negative
Cc1ccc2c(c1)C(C)c1ccccc1-2 (stereo unspecified),mutagenic call,[2],inactive; negative
same,mutagenic call,[4],active; positive
ClCc1cc2c3ccccc3cc3ccc4cccc1c4c32,mutagenic call,[1],active; positive
same,mutagenic call,[3],active; positive
Cc1nc2c(cc(C)c3ccc4ccc(O)cc4c32)[nH]1,mutagenic call,"Strain/Indicator: TA98, Metabolic Activation: RAT, LIVER, S-9, AROCLOR, Method: STANDARD PLATE",active; positive
O=[N+]([O-])c1cc2ccc3cccc4ccc(c1O)c2c34,mutagenic call,"Strain/Indicator: TA98(NR), Metabolic Activation: NONE, Method: STANDARD PLATE",active; positive
same,mutagenic call,[1],active; positive
same,mutagenic call,[2],active; positive
same,mutagenic call,[3],active; positive
same,mutagenic call,[4],active; positive
